Experimental data: patent US6696280B2, “Candida geranylgeranyl-protein transferase polypetide, compositions and methods related thereto” (GPC Biotech, Inc., priority 1996, dated 2004)

What was measured:
[1] = tested on: CaGGTase; experiment: Km determination, prenylation (TCA precipitation) assay; format: biochemical, Candida
Procedure: Briefly, a DEAE FF column is used for the first chromatographic step. The fractions from the columns in the purification are assayed for both GGTase and Ftase. For GGTase, 0.2 μM CaRho and 0.5 μM GGPP are used. For the FTase assay, 0.5 μM N-ras and 0.5 μM FPP are used. Both reactions are for 20-30 minutes at 37° C. The GGTase activity and FTase activity overlapped on the intial chromatography step, although the FTase activity was slightly shifted to the later fractions. The majority of the GGTase activity is pooled and then run on a SourceQ column, which separates the FTase and GGTase activities.
The fractions from the columns in the purification are being assayed for both GGtase and FTase. For GGTase 0.2 uM CaRho and 0.5 uM GGPP are used. For the FTase assay 0.5 uM N-ras and 0.5 uM FPP are used. Both reactions are for 20-30 minutes at 37°.
The second column (20 mL) Source Q separated the FTase from the GGTase The salt gradient was stretched out for 10 column volumes and 3.5 mL fractions were collected. Fraction 16 and 17 were used for Km and IC50 studies by Marc P.

[2] = biological target: T1, PKC1 (Saccharomyces cerevisiae, UniProt P24583); experiment: PKC1 protein kinase assay with synthetic Bck1 peptide; format: biochemical; conditions: for Stimulation of PKC1 by cofactor: in the presence of GTP-bound GST-Rho1
T1 construct: made in house; host or cells: PKC1-HA immunoprecipitated from S. cerevisiae extract; GST-Rho1 from baculovirus-infected Sf9 cells
Procedure: (§1) FIGS. 4A-4B. Rho1 allows cofactors to activate PKC1. FIG. 4A. Phosphorylation of synthetic Bck1 peptide by PKC1^HA immunoprecipitated from 50 μg of soluble yeast cell extract protein. Recombinant GST-Rho1 or GST-Cdc42 (1 μg) was preloaded with the indicated guanine nucleotide. Cofactors (80 μg/ml PS, 8 μg/ml DAG, and 100 μM CaCl2) were added to the reaction where indicated. Lanes 1 and 2 are control reactions with no GTPase. Mean and standard error for three experiments is shown. FIG. 4B. PS alone is sufficient to stimulate PKC1 fully in the presence of Rho1. Phosphorylation of Bck1 peptide by PKC1^HA in the presence of GTPγS-bound GST-Rho1 and the indicated cofactors. Conditions were as in FIG. 4A, except for PMA (16 ng/ml). Concentrations of PS as low as 8 μg/ml fully activated PKC1 (data not shown).
(§2) Yeast extract preparation, immunoprecipitation, immunodetection and protein kinase assays of Mpk1^HA were conducted as described previously (4). Preparation of cell extracts and immunoprecipitations for experiments with ^HARho1 were carried out as in (4) with some modifications. Lysis buffer without ρ-nitrophenyl phosphate and with 1% NP-40 was used. The extract (700 μg protein) was precleared by incubation with 20 μl of a 50% suspension of protein A-sepharose for 1 h prior to immunoprecipitation to eliminate non-specific binding of proteins to immunecomplexes. Beads were boiled in SDS-PAGE sample buffer, and samples were applied to 7.5% (for PKC1 blots) or 15% (for ^HARho1 blots) SDS-PAGE gels. For PKC1 kinase assays, all as described previously (5), except for the addition of recombinant GTPases (see below). A synthetic peptide corresponding to the sequence surrounding Ser939 of Bck1, a phosphorylation site for PKC 1, was used as substrate in PKC 1 kinase assays (5).
(§3) Recombinant Rho1 and Cdc42. Recombinant GST-Rho 1 and GST-Cdc42 were expressed and purified from baculovirus-infected insect (Sf9) cells, as described (23). For in vitro association with PKC1^HA, GST-Rho1 was not eluted from the glutathione agarose beads used for purification. GST-Rho1-bound beads were incubated with cell extract in immunoprecipitation buffer (4) for 5 h at 4° C., followed by 3 washes with this buffer. For use in PKC1^HA protein kinase assays, GST-Rho1 and GST-Cdc42 were eluted from the beads with reduced glutathione.
T1 sequence (P06780 2-206, one chain of several): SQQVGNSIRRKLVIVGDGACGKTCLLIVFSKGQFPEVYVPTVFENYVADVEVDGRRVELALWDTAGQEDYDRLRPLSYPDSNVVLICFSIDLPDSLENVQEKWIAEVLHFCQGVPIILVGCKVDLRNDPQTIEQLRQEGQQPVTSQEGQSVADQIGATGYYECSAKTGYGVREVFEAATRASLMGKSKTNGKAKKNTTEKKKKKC

[3] = tested on: rho1 mutant strains YOC752 (rho1-2), YOC729 (rho1-3), YOC755 (rho1-5); experiment: Drug sensitivity of conditional rho1 mutants; format: cell-based, Saccharomyces cerevisiae; conditions: 23° C.
[4] = tested on: 1,3-β-glucan synthase; experiment: Reconstitution of GS activity in rho1-3 membranes; format: biochemical, Saccharomyces cerevisiae; conditions: 37° C., 1 μg recombinant GTPase, 50 μM GTPγS
Procedure: FIGS. 6A-6C. GS activity from rho1 mutants (See reference of Example 3). FIG. 6A. GS activity is thermolabile in rho1^ts mutants. Crude extracts were made from cells growing at room temperature, and assayed for GS activity at the indicated temperatures in the presence of 50 μM GTPγS. FIG. 6B. Reconstitution of GS activity in rho 1-3 membranes with recombinant Rho1. GS activity in rho1-3 membrane fractions was measured at 37° C. in the presence of 1 μg of the indicated recombinant GTPase and 50 μM GTPγS (19). FIG. 6C. Reconstituted GS activity requires GTP. GS activity in wild-type membranes or rho1-3 membranes complemented with 1 μg of GST-Rho1 was measured at 37° C. in the presence of the indicated guanine nucleotide (20 μM). Results are expressed as percent activity relative to GTPγS.
18. Crude yeast extracts were prepared as described [Y. Kamada et al., (1995) Genes Dev. 9:1559], and stored at −80° C. in lysis buffer supplemented with 33% glycerol. Membrane fractions, where indicated, were obtained from crude extracts and 1,3-β-glucan synthase (GS) activity was measured as described in (2) with the following modifications: UDP-[^3H]glucose was used as the substrate and α-amylase (1 U/40 μl) was added to reaction mixtures to eliminate the contribution of [^3H]glucose incorporation into glycogen. For all GS assays, the mean and standard error for four experiments is shown.
19. […]

[5] = biological target: T2, PKC1 (Saccharomyces cerevisiae, UniProt P24583); experiment: PKC1 protein kinase assay with synthetic Bck1 peptide; format: biochemical; conditions: with or without cofactors PS, DAG, Ca2+
T2 construct: made in house; host or cells: PKC1-HA immunoprecipitated from S. cerevisiae extract; GST-Rho1 from baculovirus-infected Sf9 cells
T2 sequence (P24583 1-1151): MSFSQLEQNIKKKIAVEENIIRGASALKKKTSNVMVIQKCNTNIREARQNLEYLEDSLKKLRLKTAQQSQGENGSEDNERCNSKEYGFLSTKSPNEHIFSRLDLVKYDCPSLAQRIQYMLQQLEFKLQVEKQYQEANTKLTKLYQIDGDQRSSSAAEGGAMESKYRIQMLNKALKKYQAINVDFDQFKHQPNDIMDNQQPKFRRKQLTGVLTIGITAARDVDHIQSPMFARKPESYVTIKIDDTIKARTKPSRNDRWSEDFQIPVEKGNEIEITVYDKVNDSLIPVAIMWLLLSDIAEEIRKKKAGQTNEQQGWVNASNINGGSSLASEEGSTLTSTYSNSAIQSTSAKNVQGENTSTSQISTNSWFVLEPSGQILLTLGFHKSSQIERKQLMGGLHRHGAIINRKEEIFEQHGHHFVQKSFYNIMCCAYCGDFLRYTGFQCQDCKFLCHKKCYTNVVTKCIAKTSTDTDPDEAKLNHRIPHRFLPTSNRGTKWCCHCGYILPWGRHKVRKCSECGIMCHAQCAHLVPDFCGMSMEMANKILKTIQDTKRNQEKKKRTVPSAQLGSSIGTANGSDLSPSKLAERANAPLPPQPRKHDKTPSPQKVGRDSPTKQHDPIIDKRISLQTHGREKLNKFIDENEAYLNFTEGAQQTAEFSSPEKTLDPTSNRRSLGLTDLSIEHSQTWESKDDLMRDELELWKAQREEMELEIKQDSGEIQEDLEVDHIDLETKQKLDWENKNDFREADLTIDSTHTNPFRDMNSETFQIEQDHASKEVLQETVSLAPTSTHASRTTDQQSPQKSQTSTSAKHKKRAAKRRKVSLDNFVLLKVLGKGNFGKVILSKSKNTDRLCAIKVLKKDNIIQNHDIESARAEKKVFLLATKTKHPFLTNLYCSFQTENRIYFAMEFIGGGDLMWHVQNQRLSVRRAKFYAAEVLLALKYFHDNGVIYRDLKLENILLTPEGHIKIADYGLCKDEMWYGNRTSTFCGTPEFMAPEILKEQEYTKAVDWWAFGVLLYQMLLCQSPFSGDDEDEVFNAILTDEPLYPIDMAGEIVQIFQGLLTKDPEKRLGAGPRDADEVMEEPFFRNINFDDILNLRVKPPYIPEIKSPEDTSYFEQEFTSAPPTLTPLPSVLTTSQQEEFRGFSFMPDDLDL
Procedure: as §1, §2, §3

**Q.** For “huRhoA: human RhoA GTPase, protein substrate”, which “Km Values” [1] is on record?
**A.** Nor is human RhoA a substrate

**Q.** With `CCCCCCCCCCCCCC(=O)O[C@@H]1[C@@H](C)[C@@]2(O)[C@@H](C=C(CO)C[C@]3(O)C(=O)C(C)=C[C@@H]23)[C@@H]2C(C)(C)[C@]12OC(C)=O` [PMA, phorbol myristate acetate] as the compound, how does the “Stimulation of PKC1 by cofactor” value [2] read?
**A.** No additional stimulation

**Q.** phosphatidylserine was tested. Which “Stimulation of PKC1 by cofactor” value [2] did it give?
**A.** strongly activated

**Q.** What about the “Concentration of PS that fully activated PKC1” value ([2]; in the presence of GTPγS-bound GST-Rho1, data not shown) of the same compound?
**A.** ≤ 8 µg/mL

**Q.** For echinocandin B, which “Sensitivity of rho1 mutants to drug” value [3] is on record?
**A.** hypersensitivity

**Q.** How did the “Stimulation of PKC1 by cofactor” value [2] turn out when `[Ca+2]` [Ca^2+] was run?
**A.** No additional stimulation

**Q.** With “GST-Rho1: recombinant glutathione-S-transferase-Rho1 fusion purified from Sf9 insect cells” as the compound, how does the “Restoration of GS activity” value [4] read?
**A.** restored fully

**Q.** What about the “Stimulation of PKC1 activity by recombinant GTPase” value [5] of the same compound?
**A.** did not stimulate PKC1 activity alone

**Q.** `O=S(=O)(O)c1cc(Nc2nc(Nc3ccccc3)nc(N(CCO)CCO)n2)ccc1/C=C/c1ccc(Nc2nc(Nc3ccccc3)nc(N(CCO)CCO)n2)cc1S(=O)(=O)O` [Calcofluor white] was tested. Which “Sensitivity of rho1 mutants to drug” value [3] did it give?
**A.** hypersensitivity

**Q.** With diacylglycerol [DAG] as the compound, how does the “Stimulation of PKC1 by cofactor” value [2] read?
**A.** No additional stimulation
